Source: patent publication US10111433B2 (priority 2014, dated 2018)
Read-outs that look alike come from different tables or passages of the source.

Key:
Phytophthora infestans [1] = assay type: in vivo
Plasmopara viticola = experiment: Field activity against Plasmopara viticola on grapevine; assay type: in vivo; details: Table B2; A-1.2 22.5 gai/ha; bunches, ten days after sixth application
Excerpt: Merlot grapevines were cultivated in rows with 1 m between plants within the row, and 2 m spaces between rows. Treatment plots were defined with an 8 m^2 vertical area. The trial consisted of three replicates of the treatment list, with the positions of each treatment plot randomised within the replicate.
Test compounds were formulated and applied to the relevant treatment plots, using a backpack sprayer with a flat fan nozzle. The first application was made when the majority of plants were at growth stage BBCH 15 and following applications at 10-14 day intervals through to growth stage BBCH 79.
The first symptoms of the target pathogen Plasmopara viticola were observed between the second and third applications. Plants outside the trial area were inoculated to increase the disease pressure, but infection processes within the trial plots were natural. […]
Ten days after the sixth application, at growth stage BBCH 79, the fruit was assessed for infection by Plasmopara viticola. 50 bunches per plot were assessed, the scores given in table B2 are percent disease control relative to untreated, based on the mean percentage of bunches showing symptoms of infection across all three replicates of a treatment.

Phytophthora infestans [2] = assay type: in vivo; details: Table B3; A-1.2 15 gai/ha; leaf area, four days after final application
Phytophthora capsici = experiment: Activity against Phytophthora capsici, growth inhibition in nutrient broth (microtiter plate); assay type: cell-based; details: Phytophthora capsici, read-out: % disease control; for inhibition of growth at 6.25e-05 ppm: A-1.2 0.0000625 ppm; for inhibition of growth at 0.0005 ppm: A-1.2 0.0005000 ppm; for inhibition of growth at 3.9e-06 ppm: A-1.2 0.0000039 ppm; for inhibition of growth at 7.8e-06 ppm: A-1.2 0.0000078 ppm; for inhibition of growth at 1.56e-05 ppm: A-1.2 0.0000156 ppm; for inhibition of growth at 3.13e-05 ppm: A-1.2 0.0000313 ppm
Method: Conidia of the fungus from cryogenic storage are directly mixed into nutrient broth (PDB potato dextrose broth). After placing a (DMSO) solution of test compound into a microtiter plate (96-well format), the nutrient broth containing the fungal spores is added. […] Table B4 to B21 gives the mean percent control relative to untreated.

O=C(N[C@@H]1CCCc2ccccc21)c1cc(C2CCN(C(=O)Cn3nc(C(F)F)cc3C(F)F)CC2)ccn1 [Compound A-1.2, 1′-[2-(3,5-bis-difluoromethyl-pyrazol-1-yl)-acetyl]-1′,2′,3′,4′,5′,6′-hexahydro-[4,4′]bipyridinyl-2-carboxylic acid (R)-(1,2,3,4-tetrahydronaphthalen-1-yl)-amide]
% disease control (Phytophthora infestans [1]; Table B1.1, A-1.2 0.02 ppm): 0%
% disease control (Phytophthora infestans [1]; Table B1.1, A-1.2 0.06 ppm): 14%
% disease control (Phytophthora infestans [1]; Table B1.2, A-1.2 0.06 ppm): 14%
% disease control (Phytophthora infestans [1]; Table B1.3, A-1.2 0.06 ppm): 14%
% disease control relative to untreated (Plasmopara viticola): 87.3%
% disease control relative to untreated (Phytophthora infestans [2]): 64.8%
inhibition of growth at 6.25e-05 ppm (Phytophthora capsici; Table B4): 0%
inhibition of growth at 0.000125 ppm (Phytophthora capsici; Table B4, A-1.2 0.0001250 ppm): 32%
inhibition of growth at 0.00025 ppm (Phytophthora capsici; Table B4, A-1.2 0.0002500 ppm): 64%
inhibition of growth at 0.0005 ppm (Phytophthora capsici; Table B4): 76%
inhibition of growth at 2e-06 ppm (Phytophthora capsici; Table B5, A-1.2 0.0000020 ppm): 0%
inhibition of growth at 3.9e-06 ppm (Phytophthora capsici; Table B5): 0%
inhibition of growth at 7.8e-06 ppm (Phytophthora capsici; Table B5): 0%
inhibition of growth at 1.56e-05 ppm (Phytophthora capsici; Table B5): 0%
inhibition of growth at 3.13e-05 ppm (Phytophthora capsici; Table B5): 0%
inhibition of growth at 6.25e-05 ppm (Phytophthora capsici; Table B5): 47%
inhibition of growth at 6.25e-05 ppm (Phytophthora capsici; Table B6): 0%
inhibition of growth at 0.000125 ppm (Phytophthora capsici; Table B6, A-1.2 0.0001250 ppm): 40%
inhibition of growth at 0.00025 ppm (Phytophthora capsici; Table B6, A-1.2 0.0002500 ppm): 78%
inhibition of growth at 3.9e-06 ppm (Phytophthora capsici; Table B7): 0%
inhibition of growth at 7.8e-06 ppm (Phytophthora capsici; Table B7): 0%
inhibition of growth at 1.56e-05 ppm (Phytophthora capsici; Table B7): 0%
inhibition of growth at 3.13e-05 ppm (Phytophthora capsici; Table B7): 0%
inhibition of growth at 6.25e-05 ppm (Phytophthora capsici; Table B7): 38%
inhibition of growth at 0.000125 ppm (Phytophthora capsici; Table B7, A-1.2 0.0001250 ppm): 42%
inhibition of growth at 6.25e-05 ppm (Phytophthora capsici; Table B8): 3%
inhibition of growth at 0.000125 ppm (Phytophthora capsici; Table B8, A-1.2 0.0001250 ppm): 56%
inhibition of growth at 0.00025 ppm (Phytophthora capsici; Table B8, A-1.2 0.0002500 ppm): 69%
inhibition of growth at 6.25e-05 ppm (Phytophthora capsici; Table B9): 0%
inhibition of growth at 0.000125 ppm (Phytophthora capsici; Table B9, A-1.2 0.0001250 ppm): 47%
inhibition of growth at 6.25e-05 ppm (Phytophthora capsici; Table B10): 12%
inhibition of growth at 0.000125 ppm (Phytophthora capsici; Table B10, A-1.2 0.0001250 ppm): 62%
inhibition of growth at 6.25e-05 ppm (Phytophthora capsici; Table B11): 0%
inhibition of growth at 0.000125 ppm (Phytophthora capsici; Table B11, A-1.2 0.0001250 ppm): 55%
inhibition of growth at 0.00025 ppm (Phytophthora capsici; Table B11, A-1.2 0.0002500 ppm): 82%
inhibition of growth at 3.13e-05 ppm (Phytophthora capsici; Table B12): 0%
inhibition of growth at 6.25e-05 ppm (Phytophthora capsici; Table B12): 0%
inhibition of growth at 0.000125 ppm (Phytophthora capsici; Table B12, A-1.2 0.0001250 ppm): 57%
inhibition of growth at 0.00025 ppm (Phytophthora capsici; Table B12, A-1.2 0.0002500 ppm): 81%
inhibition of growth at 0.000125 ppm (Phytophthora capsici; Table B13, A-1.2 0.0001250 ppm): 46%
inhibition of growth at 0.00025 ppm (Phytophthora capsici; Table B13, A-1.2 0.0002500 ppm): 69%
inhibition of growth at 0.0005 ppm (Phytophthora capsici; Table B13): 84%
inhibition of growth at 1.56e-05 ppm (Phytophthora capsici; Table B14): 0%
inhibition of growth at 3.13e-05 ppm (Phytophthora capsici; Table B14): 0%
inhibition of growth at 6.25e-05 ppm (Phytophthora capsici; Table B14): 0%
inhibition of growth at 1.56e-05 ppm (Phytophthora capsici; Table B15): 0%
inhibition of growth at 3.13e-05 ppm (Phytophthora capsici; Table B15): 0%
inhibition of growth at 6.25e-05 ppm (Phytophthora capsici; Table B15): 0%
inhibition of growth at 0.000125 ppm (Phytophthora capsici; Table B15, A-1.2 0.0001250 ppm): 71%
inhibition of growth at 0.000125 ppm (Phytophthora capsici; Table B16, A-1.2 0.0001250 ppm): 54%
inhibition of growth at 6.25e-05 ppm (Phytophthora capsici; Table B17): 0%
inhibition of growth at 0.000125 ppm (Phytophthora capsici; Table B17, A-1.2 0.0001250 ppm): 67%
inhibition of growth at 0.00025 ppm (Phytophthora capsici; Table B17, A-1.2 0.0002500 ppm): 79%
inhibition of growth at 0.0005 ppm (Phytophthora capsici; Table B17): 82%
inhibition of growth at 7.8e-06 ppm (Phytophthora capsici; Table B18): 0%
inhibition of growth at 1.56e-05 ppm (Phytophthora capsici; Table B18): 0%
inhibition of growth at 3.13e-05 ppm (Phytophthora capsici; Table B18): 0%
inhibition of growth at 6.25e-05 ppm (Phytophthora capsici; Table B18): 0%
inhibition of growth at 0.000125 ppm (Phytophthora capsici; Table B18, A-1.2 0.0001250 ppm): 46%
inhibition of growth at 1.56e-05 ppm (Phytophthora capsici; Table B19): 0%
inhibition of growth at 3.13e-05 ppm (Phytophthora capsici; Table B19): 0%
inhibition of growth at 6.25e-05 ppm (Phytophthora capsici; Table B19): 0%
inhibition of growth at 0.000125 ppm (Phytophthora capsici; Table B19, A-1.2 0.0001250 ppm): 38%
inhibition of growth at 0.00025 ppm (Phytophthora capsici; Table B19, A-1.2 0.0002500 ppm): 81%
inhibition of growth at 6.25e-05 ppm (Phytophthora capsici; Table B20): 66%
inhibition of growth at 0.000125 ppm (Phytophthora capsici; Table B20, A-1.2 0.0001250 ppm): 83%
inhibition of growth at 6.3e-05 ppm (Phytophthora capsici; Table B21, A-1.2 0.000063 ppm): 0%
inhibition of growth at 0.000125 ppm (Phytophthora capsici; Table B21, A-1.2 0.000125 ppm): 69%
inhibition of growth at 0.00025 ppm (Phytophthora capsici; Table B21, A-1.2 0.000250 ppm): 78%
